{
  "source": "ChEMBL document CHEMBL1201862",
  "about": "“PubChem BioAssay data set” (2004)",
  "key": {"[1]": {"biological_target": "T1, Small ubiquitin-related modifier 1 (Homo sapiens, UniProt P63165)", "T1 sequence (P63165 whole entry)": "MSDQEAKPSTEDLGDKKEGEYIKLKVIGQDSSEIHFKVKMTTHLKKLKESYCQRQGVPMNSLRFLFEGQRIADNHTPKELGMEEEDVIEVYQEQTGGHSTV", "experiment": "SUMO1 protein interaction blockers, potency – biochemical, fluorescence polarization, uHTS hits, dose response (AID 624382)", "type": "functional", "conditions": "read-out: IC50_Mean"}, "[2]": {"biological_target": "Induced myeloid leukemia cell differentiation protein Mcl-1 (Homo sapiens, UniProt Q07820)", "experiment": "blockers of MCL1 binding to BIM peptide – biochemical, fluorescence polarization, BIM-BH3 peptide, 1536-well, dose response (AID 2217)"}, "[3]": {"biological_target": "T2, Carboxy-terminal domain RNA polymerase II polypeptide A small phosphatase 1 (Homo sapiens, UniProt Q9GZU7)", "T2 sequence (Q9GZU7 whole entry)": "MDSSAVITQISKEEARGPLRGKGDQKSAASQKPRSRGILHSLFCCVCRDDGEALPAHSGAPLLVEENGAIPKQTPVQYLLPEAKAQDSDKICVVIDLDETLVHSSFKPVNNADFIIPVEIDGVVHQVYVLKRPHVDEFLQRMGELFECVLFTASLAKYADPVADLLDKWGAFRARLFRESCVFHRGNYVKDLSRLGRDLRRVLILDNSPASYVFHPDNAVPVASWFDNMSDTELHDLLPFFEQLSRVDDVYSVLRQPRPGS", "experiment": "CTDSP1 inhibitors, concentration-response, biochemical, absorbance readout, ultra-high-throughput screen actives (AID 540297)", "type": "functional"}, "Caspase-6": {"biological_target": "T3, Caspase-6 (Homo sapiens, UniProt P55212)", "T3 sequence (P55212 whole entry)": "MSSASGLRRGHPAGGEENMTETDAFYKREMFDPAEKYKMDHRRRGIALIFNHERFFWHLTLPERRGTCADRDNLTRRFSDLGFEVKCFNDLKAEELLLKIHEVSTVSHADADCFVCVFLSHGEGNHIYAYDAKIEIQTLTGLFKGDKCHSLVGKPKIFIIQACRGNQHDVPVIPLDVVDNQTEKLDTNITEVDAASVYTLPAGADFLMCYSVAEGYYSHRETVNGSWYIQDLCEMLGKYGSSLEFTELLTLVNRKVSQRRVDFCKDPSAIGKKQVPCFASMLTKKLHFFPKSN", "experiment": "inhibition of CASP6 peptide cleavage – biochemical, VEID-R110 fluorescence, cherry-pick, dose response (AID 720632)"}, "Bcl-2-like protein 1": {"biological_target": "Bcl-2-like protein 1 (Homo sapiens, UniProt Q07817)", "experiment": "blockers of BCLXL peptide binding – biochemical, fluorescence polarization, 1536-well, selectivity assay for MCL1 inhibitor project, dose response (AID 2218)"}, "[4]": {"biological_target": "T1, Small ubiquitin-related modifier 1", "experiment": "SUMO1 protein-protein binding blockers, potency – biochemical, FRET, dose response (AID 624383)", "type": "functional", "conditions": "read-out: IC50_Mean"}, "[5]": {"biological_target": "Voltage-dependent T-type calcium channel subunit alpha-1H (Homo sapiens, UniProt O95180)", "sequence (O95180 whole entry)": "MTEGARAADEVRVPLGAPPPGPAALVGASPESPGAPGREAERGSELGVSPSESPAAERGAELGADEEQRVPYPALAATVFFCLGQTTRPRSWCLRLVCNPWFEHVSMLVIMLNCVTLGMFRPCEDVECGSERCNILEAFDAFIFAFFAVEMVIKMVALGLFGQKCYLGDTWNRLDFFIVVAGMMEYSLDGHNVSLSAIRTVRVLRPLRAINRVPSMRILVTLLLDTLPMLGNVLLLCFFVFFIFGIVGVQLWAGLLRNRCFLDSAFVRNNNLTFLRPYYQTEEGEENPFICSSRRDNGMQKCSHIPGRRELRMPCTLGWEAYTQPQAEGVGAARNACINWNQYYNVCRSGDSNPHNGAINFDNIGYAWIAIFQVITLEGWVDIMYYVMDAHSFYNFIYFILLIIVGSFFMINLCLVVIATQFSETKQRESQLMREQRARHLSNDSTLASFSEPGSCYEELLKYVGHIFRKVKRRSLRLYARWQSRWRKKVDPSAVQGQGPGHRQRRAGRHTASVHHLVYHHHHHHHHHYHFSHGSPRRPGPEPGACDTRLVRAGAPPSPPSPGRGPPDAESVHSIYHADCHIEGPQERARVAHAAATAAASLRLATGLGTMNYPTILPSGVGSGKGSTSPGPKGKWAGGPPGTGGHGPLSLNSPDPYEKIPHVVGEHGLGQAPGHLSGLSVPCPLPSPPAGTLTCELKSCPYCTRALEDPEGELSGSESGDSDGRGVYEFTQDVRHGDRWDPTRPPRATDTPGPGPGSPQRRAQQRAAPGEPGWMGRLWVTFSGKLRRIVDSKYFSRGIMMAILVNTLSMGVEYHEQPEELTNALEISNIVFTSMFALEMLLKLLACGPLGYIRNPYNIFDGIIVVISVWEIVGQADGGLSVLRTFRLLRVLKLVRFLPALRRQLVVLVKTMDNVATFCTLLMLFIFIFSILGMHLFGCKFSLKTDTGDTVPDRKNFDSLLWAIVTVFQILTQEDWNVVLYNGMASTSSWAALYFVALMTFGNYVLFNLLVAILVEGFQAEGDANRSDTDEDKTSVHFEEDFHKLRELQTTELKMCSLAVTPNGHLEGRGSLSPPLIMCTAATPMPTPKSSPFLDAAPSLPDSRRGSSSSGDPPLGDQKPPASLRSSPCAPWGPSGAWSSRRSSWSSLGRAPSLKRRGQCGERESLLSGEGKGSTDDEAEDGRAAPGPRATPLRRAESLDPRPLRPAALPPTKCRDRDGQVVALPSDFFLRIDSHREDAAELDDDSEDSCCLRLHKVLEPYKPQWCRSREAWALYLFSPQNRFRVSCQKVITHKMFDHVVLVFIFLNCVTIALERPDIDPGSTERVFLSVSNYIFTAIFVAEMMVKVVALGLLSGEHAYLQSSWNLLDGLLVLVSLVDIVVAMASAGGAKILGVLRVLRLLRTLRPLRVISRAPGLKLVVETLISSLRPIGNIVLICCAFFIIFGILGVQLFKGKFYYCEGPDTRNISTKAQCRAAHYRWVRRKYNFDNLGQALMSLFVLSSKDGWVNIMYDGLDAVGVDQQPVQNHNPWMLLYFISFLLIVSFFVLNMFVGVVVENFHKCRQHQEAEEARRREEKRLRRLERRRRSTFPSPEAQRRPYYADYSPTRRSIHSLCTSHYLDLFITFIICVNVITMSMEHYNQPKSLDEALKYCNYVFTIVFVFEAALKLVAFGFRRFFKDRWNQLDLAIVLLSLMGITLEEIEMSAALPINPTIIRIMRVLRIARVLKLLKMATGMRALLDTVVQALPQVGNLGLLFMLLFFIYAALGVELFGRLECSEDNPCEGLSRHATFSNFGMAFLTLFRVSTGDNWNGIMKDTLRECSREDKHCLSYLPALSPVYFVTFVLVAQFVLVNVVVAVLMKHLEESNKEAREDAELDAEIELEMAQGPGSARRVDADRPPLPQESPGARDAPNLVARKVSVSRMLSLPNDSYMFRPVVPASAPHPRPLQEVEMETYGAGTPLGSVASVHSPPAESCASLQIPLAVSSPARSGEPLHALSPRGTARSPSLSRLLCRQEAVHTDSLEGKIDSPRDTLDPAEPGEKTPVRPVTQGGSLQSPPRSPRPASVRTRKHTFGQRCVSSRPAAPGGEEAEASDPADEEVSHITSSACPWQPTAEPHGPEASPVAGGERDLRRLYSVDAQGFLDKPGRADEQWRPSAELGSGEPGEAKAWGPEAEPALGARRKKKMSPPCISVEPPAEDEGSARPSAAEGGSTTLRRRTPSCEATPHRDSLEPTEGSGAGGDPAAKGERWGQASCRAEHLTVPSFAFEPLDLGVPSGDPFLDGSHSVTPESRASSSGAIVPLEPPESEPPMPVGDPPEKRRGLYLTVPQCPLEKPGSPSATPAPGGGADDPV", "type": "functional"}, "[6]": {"experiment": "Luminescence Cell-Based Dose Response HTS to Identify Inhibitors of 5'UTR Stem-Loop Driven Prion Protein mRNA Translation in H4 Neuroglioblastoma Cells. [Related pubchem assays: 1827 (Project Summary), 1813 (Primary HTS)]", "type": "functional"}, "[7]": {"experiment": "viability of HCT116 lacking mutant beta-catenin – cell-based, human colon tumor, dose response (AID 1045);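 also: cells exposed to compound for 60 hours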", "type": "functional"}, "Galanin receptor type 2": {"biological_target": "Galanin receptor type 2 (Homo sapiens, UniProt O43603)", "sequence (O43603 whole entry)": "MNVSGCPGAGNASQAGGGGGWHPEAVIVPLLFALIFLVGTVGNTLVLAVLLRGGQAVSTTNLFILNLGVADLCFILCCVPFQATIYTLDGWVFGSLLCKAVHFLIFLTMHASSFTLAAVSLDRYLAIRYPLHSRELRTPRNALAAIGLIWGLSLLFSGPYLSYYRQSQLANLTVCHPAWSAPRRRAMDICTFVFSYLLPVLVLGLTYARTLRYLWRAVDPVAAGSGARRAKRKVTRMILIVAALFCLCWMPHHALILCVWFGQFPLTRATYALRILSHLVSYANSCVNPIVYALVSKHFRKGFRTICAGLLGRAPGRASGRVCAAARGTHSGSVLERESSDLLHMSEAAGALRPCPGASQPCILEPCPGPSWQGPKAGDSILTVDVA", "experiment": "Dose Response cell-based high-throughput screening assay to identify agonists of galanin receptor 2 (GALR2). [Related pubchem assays: 864 ]", "type": "functional"}, "[8]": {"experiment": "HPDE-C7 pancreatic duct cell viability loss – fluorescence, HTS (AID 430)", "type": "functional, cell-based", "conditions": "Homo sapiens"}, "Streptokinase A": {"biological_target": "T4, Streptokinase A (Streptococcus pyogenes serotype M1, UniProt P10520)", "T4 sequence (P10520 whole entry)": "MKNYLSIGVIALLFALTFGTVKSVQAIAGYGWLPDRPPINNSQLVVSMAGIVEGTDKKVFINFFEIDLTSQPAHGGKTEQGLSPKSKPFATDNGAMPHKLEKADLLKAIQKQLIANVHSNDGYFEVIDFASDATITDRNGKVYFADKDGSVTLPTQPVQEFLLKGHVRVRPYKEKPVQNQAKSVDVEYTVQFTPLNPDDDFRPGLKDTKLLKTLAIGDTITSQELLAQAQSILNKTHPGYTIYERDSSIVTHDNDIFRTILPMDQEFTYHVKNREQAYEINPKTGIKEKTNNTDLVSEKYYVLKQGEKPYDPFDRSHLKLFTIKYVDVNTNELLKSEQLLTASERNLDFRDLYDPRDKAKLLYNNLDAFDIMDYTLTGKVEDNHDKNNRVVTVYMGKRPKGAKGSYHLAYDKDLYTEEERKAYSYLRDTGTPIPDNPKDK", "experiment": "viability-normalized secreted streptokinase activity reduction – plasminogen activation absorbance, OD405, dose response (AID 1914);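 also: secreted streptokinase activity via plasminogen activation per viability signal from cell pellet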", "type": "functional, Streptococcus pyogenes M1 GAS"}, "Cytochrome P450 2C9": {"biological_target": "Cytochrome P450 2C9 (Homo sapiens, UniProt P11712)", "sequence (P11712 whole entry)": "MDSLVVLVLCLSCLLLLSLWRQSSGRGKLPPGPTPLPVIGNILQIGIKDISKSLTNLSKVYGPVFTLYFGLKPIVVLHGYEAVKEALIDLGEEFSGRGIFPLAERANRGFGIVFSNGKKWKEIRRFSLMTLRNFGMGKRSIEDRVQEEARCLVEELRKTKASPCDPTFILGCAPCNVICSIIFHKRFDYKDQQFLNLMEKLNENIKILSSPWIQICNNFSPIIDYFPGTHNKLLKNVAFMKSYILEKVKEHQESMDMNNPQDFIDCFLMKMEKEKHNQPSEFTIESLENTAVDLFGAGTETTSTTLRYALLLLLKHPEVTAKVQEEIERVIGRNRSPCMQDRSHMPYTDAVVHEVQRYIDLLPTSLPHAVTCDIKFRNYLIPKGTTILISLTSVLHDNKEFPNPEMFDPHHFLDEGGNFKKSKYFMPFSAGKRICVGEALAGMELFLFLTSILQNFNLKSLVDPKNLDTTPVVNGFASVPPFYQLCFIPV", "conditions": "Potency"}, "SN12K1": {"system": "SN12K1", "experiment": "cells", "type": "functional", "conditions": "Homo sapiens"}, "Streptococcus": {"system": "Streptococcus", "experiment": "GAS UMAA2166 growth inhibition – luminescence, BacTiterGlo, counter-screen for streptokinase expression inhibitor project, dose response (AID 1915)", "type": "functional, organism-based"}, "P388": {"system": "P388", "experiment": "cells", "type": "functional", "conditions": "Mus musculus"}, "INS1": {"system": "INS1", "experiment": "INS-1E survival protection against cytokine death – cell-based, luminescence, retest, dose response (AID 449756);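 also: cell death triggered by IL-1 beta plus TNF-alpha plus IFN-gamma mixture; protective hits raise ATP signal compared with cytokine alone wells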", "type": "functional", "conditions": "Rattus norvegicus"}, "[9]": {"experiment": "viability loss of HPDE-C7K cells – cell-based, fluorescence, HTS, primary screen (AID 431)", "type": "functional", "conditions": "Homo sapiens"}, "[10]": {"biological_target": "Dual specificity tyrosine-phosphorylation-regulated kinase 1A (Rattus norvegicus, UniProt Q63470)", "type": "biochemical, Homo sapiens"}, "[11]": {"system": "Streptococcus sp. 'group A'", "experiment": "Streptococcus pyogenes SK(-)GAS viability under kanamycin – luminescence, BacTiterGlo, confirmation, counter-screen for streptokinase expression inhibitor project, dose response (AID 1900)", "type": "functional, organism-based"}, "P388/ADR": {"system": "P388/ADR", "experiment": "cells", "type": "functional", "conditions": "Mus musculus"}, "[12]": {"experiment": "viability of PTEN-deleted HCT116 cells – cell-based, HCT116 PTEN knockout, dose response (AID 1047);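 also: cells exposed to compound for 60 hours before readout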", "type": "functional"}, "NADPH oxidase 1": {"biological_target": "NADPH oxidase 1 (Homo sapiens, UniProt Q9Y5S8)", "experiment": "Late-stage luminescence-based cell-based dose response assay to identify inhibitors of NADPH oxidase 1 (NOX1): Synthesized analogs 2.", "type": "functional"}, "Vero [13]": {"system": "Vero", "experiment": "cells", "type": "functional", "conditions": "Chlorocebus sabaeus"}, "Vero [14]": {"system": "Vero", "experiment": "mammalian cell viability reduction – secondary assay, cytotoxicity control for West Nile virus antiviral project, dose response (AID 1650)", "type": "functional", "conditions": "Chlorocebus sabaeus"}, "[15]": {"biological_target": "SWI/SNF-related matrix-associated actin-dependent regulator of chromatin subfamily A member 2 (Homo sapiens, UniProt P51531)", "sequence (P51531 whole entry)": "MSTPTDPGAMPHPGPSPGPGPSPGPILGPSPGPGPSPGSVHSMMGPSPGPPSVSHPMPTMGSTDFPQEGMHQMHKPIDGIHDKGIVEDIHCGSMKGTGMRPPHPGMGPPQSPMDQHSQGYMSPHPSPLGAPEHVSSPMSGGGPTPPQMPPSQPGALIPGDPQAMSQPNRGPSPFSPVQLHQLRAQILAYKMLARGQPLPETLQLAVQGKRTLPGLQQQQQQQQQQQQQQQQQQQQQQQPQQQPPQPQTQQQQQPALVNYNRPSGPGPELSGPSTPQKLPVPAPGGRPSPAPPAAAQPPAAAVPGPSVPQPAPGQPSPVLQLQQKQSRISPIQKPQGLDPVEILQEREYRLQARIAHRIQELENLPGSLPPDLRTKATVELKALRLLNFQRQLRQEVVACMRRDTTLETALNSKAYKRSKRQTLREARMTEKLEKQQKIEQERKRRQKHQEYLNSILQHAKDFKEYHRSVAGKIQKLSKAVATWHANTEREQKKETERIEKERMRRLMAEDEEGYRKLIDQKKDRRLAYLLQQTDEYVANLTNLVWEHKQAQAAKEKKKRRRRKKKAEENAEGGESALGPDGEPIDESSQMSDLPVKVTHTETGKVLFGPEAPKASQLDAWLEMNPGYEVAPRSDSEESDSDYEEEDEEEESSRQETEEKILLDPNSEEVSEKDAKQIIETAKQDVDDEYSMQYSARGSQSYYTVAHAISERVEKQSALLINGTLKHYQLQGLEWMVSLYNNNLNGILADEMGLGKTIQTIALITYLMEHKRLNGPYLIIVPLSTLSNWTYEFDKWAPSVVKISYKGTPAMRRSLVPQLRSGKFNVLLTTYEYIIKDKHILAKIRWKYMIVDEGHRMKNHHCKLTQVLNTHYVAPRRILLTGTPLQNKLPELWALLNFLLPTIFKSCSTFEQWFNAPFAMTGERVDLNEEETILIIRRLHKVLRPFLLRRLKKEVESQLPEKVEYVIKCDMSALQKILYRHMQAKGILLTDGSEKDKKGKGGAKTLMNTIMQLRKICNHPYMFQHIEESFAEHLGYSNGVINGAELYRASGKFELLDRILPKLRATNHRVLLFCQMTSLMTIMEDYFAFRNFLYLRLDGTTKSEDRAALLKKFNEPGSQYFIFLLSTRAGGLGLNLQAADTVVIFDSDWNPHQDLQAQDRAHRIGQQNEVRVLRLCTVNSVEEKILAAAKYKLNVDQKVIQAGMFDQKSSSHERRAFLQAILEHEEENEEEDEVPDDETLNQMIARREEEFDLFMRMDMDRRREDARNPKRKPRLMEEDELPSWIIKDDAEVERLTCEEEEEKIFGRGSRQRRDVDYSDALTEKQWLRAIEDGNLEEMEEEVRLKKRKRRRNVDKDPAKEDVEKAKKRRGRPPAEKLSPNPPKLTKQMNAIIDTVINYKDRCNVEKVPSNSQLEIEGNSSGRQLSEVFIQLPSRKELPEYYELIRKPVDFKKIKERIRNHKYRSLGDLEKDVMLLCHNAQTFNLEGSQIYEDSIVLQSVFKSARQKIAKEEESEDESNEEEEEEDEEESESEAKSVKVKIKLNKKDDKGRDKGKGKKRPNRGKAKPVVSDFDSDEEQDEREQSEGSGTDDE", "experiment": "Luminescence-based cell-based high throughput dose response assay to identify activators of the function of SWI/SNF related, matrix associated, actin dependent regulator of chromatin, subfamily a, member 2 (SMARCA2, BRM).", "type": "functional"}, "[16]": {"experiment": "Counterscreen for activators of the function of SWI/SNF related, matrix associated, actin dependent regulator of chromatin, subfamily a, member 2 (SMARCA2, BRM): Luminescence-based cell-based high throughput dose response assay to identify non-selective compounds using the VP16 reporter assay.", "type": "functional"}, "[17]": {"experiment": "M. tuberculosis H37Rv growth inhibitors, H37Rv strain (AID 1626)", "type": "functional"}, "Bcl-2-related protein A1 [18]": {"biological_target": "T5, Bcl-2-related protein A1 (Mus musculus, UniProt Q07440)", "T5 sequence (Q07440 whole entry)": "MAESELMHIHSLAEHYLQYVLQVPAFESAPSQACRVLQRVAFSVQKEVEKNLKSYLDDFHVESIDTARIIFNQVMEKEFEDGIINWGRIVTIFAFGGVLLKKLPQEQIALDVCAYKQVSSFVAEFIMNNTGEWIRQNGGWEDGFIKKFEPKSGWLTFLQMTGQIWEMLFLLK", "experiment": "Bfl-1 binding inhibitors, SAR follow-up, biochemical, fluorescence polarization (AID 1070)"}, "Bcl-2-related protein A1 [19]": {"biological_target": "T5, Bcl-2-related protein A1", "experiment": "small-molecule antagonists of Bfl-1/BH3 interaction – biochemical, TR-FRET, mouse Bfl-1, confirmation (AID 621);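 also: TR-FRET binding of GST-Bfl-1 to FITC-labelled Bid peptide via terbium antibody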"}, "[20]": {"biological_target": "Glyceraldehyde-3-phosphate dehydrogenase (Homo sapiens, UniProt P04406)"}},
  "note": "Activity calls are given as the source filed them.",
  "data": [
    {"compound": "Cc1ccc(C)c(S(=O)(=O)Nc2ccc3oc(C)c(C(=O)O)c3c2)c1", "values": [
      {"measurement": "IC50", "setting": "[1]", "result": "> 66.6 µM (inactive)"},
      {"measurement": "IC50", "setting": "[2]", "result": "18.2 µM (not active)"},
      {"measurement": "IC50", "setting": "[3]", "result": "3.21 µM (active)"},
      {"measurement": "AC50", "setting": "Caspase-6", "result": "3.67 µM (active)"},
      {"measurement": "IC50", "setting": "Bcl-2-like protein 1", "result": "93.3 µM (not active)"},
      {"measurement": "IC50", "setting": "[4]", "result": "11.3 µM (active)"}
    ]},
    {"compound": "Cc1c2ccncc2c(C)c2c1[nH]c1ccccc12", "note": "[ELLIPTECINE]", "values": [
      {"measurement": "EC50", "setting": "[5]", "result": "3.99 µM (active)"},
      {"measurement": "EC50", "setting": "[6]", "result": "> 120 µM (not active)"},
      {"measurement": "EC50", "setting": "[7]", "result": "117 nM (active)"},
      {"measurement": "EC50", "setting": "Galanin receptor type 2", "result": "> 55.7 µM (not active)"},
      {"measurement": "EC50", "setting": "[8]", "result": "6.17 µM (active)"},
      {"measurement": "EC50", "setting": "Streptokinase A", "result": "> 150 µM (not active)"},
      {"measurement": "AC50", "setting": "Cytochrome P450 2C9", "result": "39.8 µM (inconclusive)"},
      {"measurement": "GI50", "setting": "SN12K1", "result": "560 nM (active)"},
      {"measurement": "EC50", "setting": "Streptococcus", "result": "7.7 µM (active)"},
      {"measurement": "GI50", "setting": "P388", "result": "383 nM (active)"},
      {"measurement": "AC50", "setting": "INS1", "result": "2.12 µM (active)"},
      {"measurement": "EC50", "setting": "[9]", "result": "2.4 µM (active)"},
      {"measurement": "AC50", "setting": "[10]", "result": "231 nM (active)"},
      {"measurement": "EC50", "setting": "[11]", "result": "2.25 µM (active)"},
      {"measurement": "GI50", "setting": "P388/ADR", "result": "824 nM (active)"},
      {"measurement": "EC50", "setting": "[12]", "result": "177 nM (active)"}
    ]},
    {"compound": "C=CC(=O)Nc1ccc2c(c1)Sc1ccccc1N2C", "values": [
      {"measurement": "IC50", "setting": "NADPH oxidase 1", "result": "2.38 µM (active)"}
    ]},
    {"compound": "COCCNC(=O)/C(C#N)=C/C=C/c1ccccc1[N+](=O)[O-]", "values": [
      {"measurement": "CC50", "setting": "Vero [13]", "result": "16 µM (active)"},
      {"measurement": "CC50", "setting": "Vero [14]", "result": "13.4 µM (active)"},
      {"measurement": "EC50", "setting": "[15]", "result": "> 91.1 µM (inactive)"},
      {"measurement": "EC50", "setting": "[16]", "result": "> 91.1 µM (inactive)"}
    ]},
    {"compound": "Cc1ccccc1NC(=O)Nc1ccc(C(F)(F)F)cc1", "values": [
      {"measurement": "IC50", "setting": "[17]", "result": "> 100 µM (active)"}
    ]},
    {"compound": "O=C1C(Cl)=C(N2CCN(CCO)CC2)C(=O)N1c1cccc([N+](=O)[O-])c1", "values": [
      {"measurement": "IC50", "setting": "Bcl-2-related protein A1 [18]", "result": "30.9 µM (active)"},
      {"measurement": "IC50", "setting": "Bcl-2-related protein A1 [19]", "result": "10.8 µM (active)"},
      {"measurement": "IC50", "setting": "[20]", "result": "> 100 µM (not active)"}
    ]}
  ]
}
